Biological target: T1, Full length EhIP6KA (Entamoeba histolytica, UniProt C4M387)
T1 sequence (C4M387 1-270): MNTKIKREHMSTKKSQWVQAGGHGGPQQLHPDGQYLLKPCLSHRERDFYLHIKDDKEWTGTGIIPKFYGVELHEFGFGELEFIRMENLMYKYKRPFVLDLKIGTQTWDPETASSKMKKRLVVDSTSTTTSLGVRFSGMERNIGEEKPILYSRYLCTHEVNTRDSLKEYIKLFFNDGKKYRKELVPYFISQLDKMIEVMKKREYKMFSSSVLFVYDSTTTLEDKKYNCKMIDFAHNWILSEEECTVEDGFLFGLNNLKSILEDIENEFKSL
Assay: NMR of reaction product
Format: biochemical
Conditions: 3 mM ATP, 2 mM MgCl2, pH 7.0, 37 then 25 C; product 5-InsP7

SMILES: O=P(O)(O)O[C@H]1[C@H](OP(=O)(O)O)[C@@H](OP(=O)(O)O)[C@H](OP(=O)(O)O)[C@@H](OP(=O)(O)O)[C@H]1OP(=O)(O)O [InsP6]
- NMR of reaction product: EhIP6KA, like mammalian IP6Ks, converts InsP6 to 5-InsP7

— PMC4141478 (Nature communications, 2014)
